Results taken from patent publication US20240308956A1, “LIPOPHILIC LITHIUM SALTS FOR DIRECT DISSOLUTION IN ORGANIC SCINTILLATORS” (Lawrence Livermore National Security, LLC, priority 2022, published 2024).

Columns and labels:
[1] = Long-term stability of loaded solutions to precipitation; assay type: physicochemical
Procedure: (§1) Majority of tested compositions were prepared with ˜0.1 wt. % of atomic ^6Li, although a possibility of higher concentrations was also tested for some efficient formulations. For liquid preparations, solid constituents weighed in vials or glass jars at ambient condition were vacuumed and transferred into the nitrogen-filled glove box, where liquid components (EJ-309, DIPN, Tx-100, and IBA) were added for dissolution. Solutions were left to stirred overnight to reach equilibrium, then transferred into the quartz cuvettes, sealed, and removed from the glovebox. Unless indicated otherwise, measurements were made in small cylindrical cuvettes of Ø2 cm×1 cm in dimensions. For approximate evaluation of the attenuation, solutions of interest were also prepared and measured at larger scale in 2″×2″ (Ø5.1 cm×5.1 cm) quartz cuvettes.

[2] = Solubility of lipophilic salts in liquids; assay type: physicochemical
Procedure: as §1

[3] = without surfactant; cited from earlier work

CCCCC(CC)COC(=O)CC(C(=O)OCC(CC)CCCC)S(=O)(=O)[O-].[Li+] (centres unmarked) [^6LiDOSS, lithium 1,4-bis(2-ethylhexoxy)-1,4-dioxobutane-2-sulfonate]
^6Li concentration at which solutions are stable to solid precipitation ([1]; solution containing 0.5 wt. % of E404): ≤ 0.3 wt. % ^6Li | stability to long-term precipitation ([1]; solutions containing 0.2 wt. % of atomic lithium): stable to long-term precipitation | solubility of the compound in DIPN ([2]; DIPN, studies of long-term stability): about 20 wt. % | solubility in organic fluids ([2]; organic fluids, of total scintillator): about 50 wt. % | solubility of the compound ([2]; without any additional dyes): up to 40 wt. %

CC(C)CC(=O)[O-].[6Li+] [^6LiIVA, reference compound]
stability of solutions ([1]; single dye solutions in 90:10 DIPN:IBA): highly stable | precipitation or LO degradation on storage ([1]; single dye solutions in 95:5 DIPN:IBA, sealed samples, ~1 year of observations): no precipitation or LO degradation

O=C([O-])c1cccc(-c2ccccc2)c1O.[6Li+] [^6LiPSA]
solubility in aromatics [3]: slightly soluble
